In US5162305:
Like-named read-outs stand apart in the source and are kept apart here.

Columns and labels:
[1] = amide bond, pyridine/DMF
[2] = the molecule shown is the open-chain precursor; amide bond; 20-membered ring; ONp active ester (from TFA-ONp)/pyridine; pyridine/DMF; 5.2 mM; 50.0 °C; 3 steps

Work on “H-Ser(Bzl)-Asn-Leu-Ser(Bzl)-Thr(Bzl)-4-CPA(ONp)-OMe?” yielded a ring closure, isolated yield ([1]; the molecule shown is the open-chain precursor, 23-membered ring, p-nitrophenyl ester (from TFA-ONp)/pyridine, 1.33 mM, 50.0 °C, 3 steps) of 53.8%.

For “H-bAla-Ser(Bzl)-Asn-Leu-Ser(Bzl)-Thr(Bzl)-Asp(ONp)-OEt?”, the ring closure, isolated yield ([1]; the molecule shown is the open-chain precursor, 23-membered ring, p-nitrophenyl ester (from TFA-ONp)/pyridine, 4.6 mM, 50.0 °C, 3 steps) was 49.5%.

For COC(=O)[C@@H]1CSCCCC(=O)N[C@@H](COCc2ccccc2)C(=O)N[C@@H](CC(N)=O)C(=O)N[C@@H](CC(C)C)C(=O)N[C@@H](COCc2ccccc2)C(=O)N[C@@H]([C@@H](C)OCc2ccccc2)C(=O)N1 [H-Ser(Bzl)-Asn-Leu-Ser(Bzl)-Thr(Bzl)-Cpc(ONp)-OMe], the ring closure, isolated yield ([1]; from H-Ser(Bzl)-Asn-Leu-Ser(Bzl)-Thr(Bzl)-Cpc(ONp)-OMe, 23-membered ring, TFA-ONp/pyridine, TFA, pyridine, 55.0 °C, 3 steps) was 55.9%.

In the case of “H-Gly-Ser(Bzl)-Asn-Leu-Ser(Bzl)-Thr(Bzl)-Glu(ONp)-OBzl?”, the ring closure, isolated yield ([1]; the molecule shown is the open-chain precursor, 23-membered ring, p-nitrophenyl ester (from TFA-ONp)/pyridine, 1.2 mM, 50.0 °C, 3 steps) is reported as 50.7%.

For COC(=O)[C@@H]1CCCCNC(=O)CCC(=O)N[C@@H](COCc2ccccc2)C(=O)N[C@@H](CC(N)=O)C(=O)N[C@@H](CC(C)C)C(=O)N[C@@H](COCc2ccccc2)C(=O)N[C@@H]([C@@H](C)OCc2ccccc2)C(=O)N1 [H-Ser(Bzl)-Asn-Leu-Ser(Bzl)-Thr(Bzl)-Lys(COCH2CH2CO-ONp)-OMe], the ring closure, isolated yield ([1]; from H-Ser(Bzl)-Asn-Leu-Ser(Bzl)-Thr(Bzl)-Lys(COCH2CH2CO-ONp)-OMe, 26-membered ring, TFA-ONp/pyridine, TFA, pyridine, 2.6 mM, 55.0 °C, 3 steps) was 55.5%.

CCOC(=O)[C@@H]1CC(=O)NCC(=O)N[C@@H](COCc2ccccc2)C(=O)N[C@@H](CC(N)=O)C(=O)N[C@@H](CC(C)C)C(=O)N[C@@H](COCc2ccccc2)C(=O)N[C@@H]([C@@H](C)OCc2ccccc2)C(=O)N1 [H-Gly-Ser(Bzl)-Asn-Leu-Ser(Bzl)-Thr(Bzl)-Asp(ONp)-OEt] gave a ring closure, isolated yield ([1]; from H-Gly-Ser(Bzl)-Asn-Leu-Ser(Bzl)-Thr(Bzl)-Asp(ONp)-OEt, 22-membered ring, TFA-ONp/pyridine, TFA, pyridine, 55.0 °C, 3 steps) of 61.3%.

Work on “H-Ser(Bzl)-Asn-Leu-Ser(Bzl)-Thr(Bzl)-Glu(ONp)-OBzl?” yielded a ring closure, crude yield [2] of 62.7%.

Work on COC(=O)[C@@H]1CSCC(=O)N[C@@H](COCc2ccccc2)C(=O)N[C@@H](CC(N)=O)C(=O)N[C@@H](CC(C)C)C(=O)N[C@@H](COCc2ccccc2)C(=O)N[C@@H]([C@@H](C)OCc2ccccc2)C(=O)N1 [H-Ser(Bzl)-Asn-Leu-Ser(Bzl)-Thr(Bzl)-Cmc(ONp)-OMe] yielded a ring closure, isolated yield ([1]; from H-Ser(Bzl)-Asn-Leu-Ser(Bzl)-Thr(Bzl)-Cmc(ONp)-OMe, 21-membered ring, TFA-ONp/pyridine, TFA, pyridine, 55.0 °C, 3 steps) of 41%.

COC(=O)[C@@H]1CCC(=O)NCCC(=O)N[C@@H](COCc2ccccc2)C(=O)N[C@@H](CC(N)=O)C(=O)N[C@@H](CC(C)C)C(=O)N[C@@H](COCc2ccccc2)C(=O)N[C@@H]([C@@H](C)OCc2ccccc2)C(=O)N1 [H-βAla-Ser(Bzl)-Asn-Leu-Ser(Bzl)-Thr(Bzl)-Glu(ONp)-OMe] showed a ring closure, isolated yield ([1]; from H-βAla-Ser(Bzl)-Asn-Leu-Ser(Bzl)-Thr(Bzl)-Glu(ONp)-OMe, 24-membered ring, TFA-ONp/pyridine, TFA, pyridine, 55.0 °C, 3 steps) of 68.1%.

COC(=O)[C@@H]1CCC(=O)NCCCCCC(=O)N[C@@H](CC(N)=O)C(=O)N[C@@H](CC(C)C)C(=O)N[C@@H](COCc2ccccc2)C(=O)N[C@@H]([C@@H](C)OCc2ccccc2)C(=O)N1 [H-Acp-Asn-Leu-Ser(Bzl)-Thr(Bzl)-Glu(ONp)-OMe] gave a ring closure, isolated yield ([1]; from H-Acp-Asn-Leu-Ser(Bzl)-Thr(Bzl)-Glu(ONp)-OMe, 24-membered ring, TFA-ONp/pyridine, TFA, pyridine, 55.0 °C, 3 steps) of 45.9%.

With COC(=O)[C@@H]1CCCCNC(=O)CCC(=O)N[C@@H](CC(N)=O)C(=O)N[C@@H](CC(C)C)C(=O)N[C@@H](COCc2ccccc2)C(=O)N[C@@H]([C@@H](C)OCc2ccccc2)C(=O)N1 [-COCH2 CH2 Co-Asn-Leu-Ser(Bzl)-Thr(Bzl)-Lys--OCH3] the ring closure, isolated yield ([1]; from H-Asn-Leu-Ser(Bzl)-Thr(Bzl)-Lys(COCH2CH2CO-ONp)-OMe, 23-membered ring, TFA-ONp/pyridine, TFA, pyridine, 55.0 °C, 3 steps) was 34.9%.

For CCOC(=O)[C@@H]1CC(=O)NCCCCCC(=O)N[C@@H](CC(N)=O)C(=O)N[C@@H](CC(C)C)C(=O)N[C@@H](COCc2ccccc2)C(=O)N[C@@H]([C@@H](C)OCc2ccccc2)C(=O)N1 [H-Acp-Asn-Leu-Ser(Bzl)-Thr(Bzl)-Asp(ONp)-OEt], the ring closure, isolated yield ([1]; from H-Acp-Asn-Leu-Ser(Bzl)-Thr(Bzl)-Asp(ONp)-OEt, 23-membered ring, TFA-ONp/pyridine, TFA, pyridine, 55.0 °C, 3 steps) was 26.6%.

With “H-Ser(Bzl)-Asn-Leu-Ser(Bzl)-Thr(Bzl)-Tyr(CH2CO-ONp)-OMe” the ring closure, isolated yield ([1]; the molecule shown is the open-chain precursor, 25-membered ring, TFA-ONp/pyridine, TFA, pyridine, then N2H4, 55.0 °C, 4 steps) was 43.8%.
